Test results taken from US11773071B2, “Benzothiazepine compounds and their use as bile acid modulators” (Albireo AB, priority 2019, dated 2023).

Legend:
[1] = Bidirectional permeability assay (Caco-2 cells); assay type: in vitro ADME; conditions: human, Caco-2, absorptive direction (A2B), 10 μM in FaSSIF buffer
Experimental: Bidirectional Permeability Assay (Caco-2 Cells)
Caco-2 cells (Evotec) were seeded at a density of 70,000 cells/well in Millicell® 24-well cell culture insert plates and maintained in an incubator (37° C., 5% CO2, 95% RH) for 21 days with media change on alternate days.
Stock solutions (10 mM) of the test compounds, atenolol (low permeability marker), propranolol (high permeability marker) and digoxin (substrate for P-gp transport pathway) were prepared in dimethylsulfoxide (DMSO). An intermediate stock solution (1 mM) was prepared by diluting 10 μL of 10 mM master stock solution with 90 μL of neat DMSO. A working stock solution (10 μM) was prepared by diluting 50 μL of 1 mM with 4950 μL of FaSSIF buffer. Post addition of compounds to the FaSSIF, samples were subjected to sonication for 2 hours, and centrifuged at 4000 RPM for 30 minutes at 37° C. The 4 mL of resultant supernatant was directly used in the assay. The final DMSO concentration in the transport experiments was 1%.
On the day of assay, Caco-2 monolayers were washed twice with transport buffer (HBSS, pH 7.4) and pre-incubated for 30 min (37° C., 5% CO2, 95% RH) in an incubator. The electrical resistance of the monolayers was measured with a Millicell®—ERS system. Monolayers with trans-epithelial electrical resistance (TEER) values greater than 350 ohm·cm^2 were selected for the assay.
The assay was conducted in absorptive direction (A2B) and secretory (B2A) directions. Transport experiments were initiated by addition of transport assay buffer (FaSSIF buffer prepared in HBSS) consisting of compounds to the donor compartment (apical chamber A-B; basolateral chamber B-A) in duplicate (n=2) wells. Drug free HBSS buffer (pH 7.4) containing 1% bovine serum albumin (BSA) was introduced to the receiver (A-B-basolateral; B-A-Apical) compartments. The volumes of apical and basolateral compartments were 0.4 and 0.8 mL, respectively. After adding dosing solution, plates were incubated in an incubator for 120 minutes at 37° C. After 120 minutes, donor and receiver samples were collected and matrix matched (1:1, 30 μL study sample+30 μL blank buffer) with the opposite buffer. Dosing samples matrix matched (1:1, 30 μL study sample+30 μL blank buffer) with the opposite buffer. Samples were processed by adding acetonitrile containing internal standard (60 μL study sample+200 μL acetonitrile containing internal standard—Tolbutamide, 500 ng/mL). Samples were vortexed and centrifuged at 4000 rpm for 10 minutes. The obtained supernatant (100 μL) was diluted with 100 μL of water and transferred to fresh 96 well plates. The concentration of compounds in the samples was analyzed by liquid chromatography tandem mass spectrometry (LC-MS/MS) method using discovery grade bio-analytical method, as applicable.
The mean apparent permeability (Papp,×10^−6 cm/sec) of the test compounds, atenolol, propranolol and digoxin were calculated as follows:
[formula] where dq/dt=rate of transport (rate of transport of compound in the receiver compartment), C0=initial concentration in the donor compartment, A=surface area of the effective filter membrane.

[2] = molecular target: T1, Human IBAT (Homo sapiens, UniProt Q12908); experiment: IBAT (h/m) assay, human IBAT-overexpressing cells, 3H-taurocholic acid uptake; assay type: cell-based; conditions: 0.25 μM 3H-taurocholic acid and 5 μM cold taurocholic acid, 20 minutes, read-out: hIBAT IC50
T1 construct: expressed in transfected cells; Puromycin-selected
T1 sequence (Q12908 1-348): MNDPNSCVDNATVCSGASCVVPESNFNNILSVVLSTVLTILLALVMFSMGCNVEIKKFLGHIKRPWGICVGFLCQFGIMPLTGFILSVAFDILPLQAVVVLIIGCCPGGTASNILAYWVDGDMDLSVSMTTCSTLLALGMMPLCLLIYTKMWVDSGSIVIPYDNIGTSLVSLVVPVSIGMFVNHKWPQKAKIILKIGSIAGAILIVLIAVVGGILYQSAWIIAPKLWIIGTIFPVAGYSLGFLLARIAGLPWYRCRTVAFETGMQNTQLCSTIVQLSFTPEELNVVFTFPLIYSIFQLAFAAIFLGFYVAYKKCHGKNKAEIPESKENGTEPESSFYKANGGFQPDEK
Experimental: IBAT (h/m) Assay Protocol
10,000 cells (Human or Mouse IBAT-overexpressing cells) were seeded in 96-wells plate (Corning CLS3809) in 200 μL MEM-alpha medium (Gibco 12571-063) supplemented with 10% FBS (Gibco 10438026) containing Puromycin (Gibco A1113803) (10 μg/mL) and incubated at 37° C. in 5% CO2 for 48 hours. After incubation, media was decanted from the wells and cells were washed two times with 300 μL of basal MEM-alpha medium (FBS-free). After decanting basal MEM-alpha medium each time, plates were tapped against paper towel to ensure maximum removal of residual media. Test inhibitor dilutions (highest test concentration being 10 μM, 3-fold serial dilution, 10 points) prepared in DMSO (Sigma D2650) were added in incubation mix (maintaining 0.2% final DMSO concentration) containing 0.25 μM 3H-taurocholic acid (ARC ART-1368) and 5 μM of cold taurocholic acid (Sigma T4009). 50 μL of incubation mix containing test inhibitors was then added to the wells (in duplicate) and the plates were incubated for 20 minutes in a CO2 incubator at 37° C. After incubation, the reaction was stopped by keeping the plates on ice water mix for 2-3 minutes and then the incubation mix was aspirated completely from the wells. The wells were washed two times with 250 μL of chilled unlabelled 1 mM taurocholic acid dissolved in HEPES (Gibco 15630080)-buffered (10 mM) HBSS (Gibco 14175079) (pH 7.4). The plates were tapped against a paper towel after every wash to ensure maximum removal of blocking buffer.
100 μL of MicroScint-20 (PerkinElmer 6013621) was added to the wells and kept overnight at room temperature before reading the plates in TopCount NXT™ Microplate Scintillation and Luminescence Counter from PerkinElmer under 3H Test protocol (set at 120 seconds reading time per well).
(§1) Preparation of Test Compound Dilutions
(§2) All test compounds were provided in powder form at room temperature. 10 mM DMSO stocks of the test compounds were prepared, aliquoted and stored at −20° C. From the 10 mM DMSO stock of the compounds, a 3-fold serial dilution in DMSO was prepared to get a total of 10 dilutions of the test compounds. 0.5 μL of this dilution in DMSO was added to 250 μL of FBS-free basal media containing 3H-taurocholic acid and cold taurocholic acid to prepare the incubation mixture.

[3] = molecular target: T2, Human LBAT (Homo sapiens, UniProt Q14973); experiment: LBAT (h/m) assay, human LBAT-overexpressing cells, 3H-taurocholic acid uptake; assay type: cell-based; conditions: 0.3 μM 3H-taurocholic acid and 7.5 μM cold taurocholic acid, 20 minutes, read-out: hLBAT IC50
T2 construct: expressed in transfected cells; Geneticin-selected
T2 sequence (Q14973 1-349): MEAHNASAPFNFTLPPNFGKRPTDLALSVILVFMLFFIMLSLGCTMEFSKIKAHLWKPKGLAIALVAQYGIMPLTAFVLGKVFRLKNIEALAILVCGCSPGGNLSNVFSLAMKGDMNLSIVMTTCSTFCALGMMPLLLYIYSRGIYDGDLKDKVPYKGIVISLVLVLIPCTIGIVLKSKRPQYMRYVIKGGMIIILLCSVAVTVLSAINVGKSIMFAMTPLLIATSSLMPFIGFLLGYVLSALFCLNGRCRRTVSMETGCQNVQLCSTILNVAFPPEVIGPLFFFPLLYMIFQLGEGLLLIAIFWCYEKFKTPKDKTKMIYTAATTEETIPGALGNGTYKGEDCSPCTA
Experimental: LBAT (h/m) Assay Protocol
20,000 cells (Human or Mouse LBAT-overexpressing cells) were seeded in 96-wells plate (Corning CLS3809) in 100 μL MEM-alpha medium (Gibco 12571-063) supplemented with 10% FBS (Gibco 10438026) containing Geneticin (Gibco 10131-027) (1 mg/mL) and incubated at 37° C. in 5% CO2 for 24 hours. After incubation, media was decanted from the wells and cells were washed two times with 300 μL of basal MEM-alpha medium (FBS-free). After decanting basal MEM-alpha medium each time, plates were tapped against paper towel to ensure maximum removal of residual media.
For human LBAT, incubation mix was prepared by adding test inhibitor dilutions (3-fold serial dilution in DMSO (Sigma D2650), 10 points) in MEM-alpha (without FBS) containing 0.3 μM 3H-taurocholic acid (ARC ART-1368) and 7.5 μM cold taurocholic acid (Sigma T4009) (maintaining 0.2% final DMSO concentration). For mouse LBAT, incubation mix was prepared by adding test inhibitor dilutions (3-fold serial dilution in DMSO, 10 points) in MEM-alpha (without FBS) containing 0.3 μM 3H-taurocholic acid and 25 μM cold taurocholic acid maintaining 0.2% final DMSO concentration). 50 μL of incubation mix containing test inhibitors was then added to the wells (in duplicate) and the plates were incubated for 20 minutes in a CO2 incubator at 37° C. After incubation, the reaction was stopped by keeping the plates on ice water mix for 2-3 minutes and then the incubation mix was aspirated completely from the wells. The wells were washed two times with 250 μL of chilled unlabelled 1 mM taurocholic acid dissolved in HEPES (Gibco 15630080)-buffered (10 mM) HBSS (Gibco 14175079) (pH 7.4). The plates were tapped against a paper towel after every wash to ensure maximum removal of blocking buffer. 100 μL of MicroScint-20 (PerkinElmer 6013621) was added to the wells and kept overnight at room temperature before reading the plates in TopCount NXT™ Microplate Scintillation and Luminescence Counter from PerkinElmer under 3H Test protocol (set at 120 seconds reading time per well, with normal plate orientation).
as §1, §2

| SMILES | Papp A→B at 120 min, 10 μM [1] [×10⁻⁶ cm/s] | IC50 [2] [nM] | IC50 [3] [nM] |
| --- | --- | --- | --- |
| CCCCC1(CC)CN(c2ccccc2)c2cc(N(C)C)c(OCCC(=O)O)cc2S(=O)(=O)C1 (racemic) [Example 16, 3-((3-Butyl-7-(dimethylamino)-3-ethyl-1,1-dioxido-5-phenyl-2,3,4,5-tetrahydro-1,5-benzothiazepin-8-yl)oxy)propanoic acid] | 17.6 | 3 |  |
| CCCCC1(CC)CN(c2ccccc2)c2cc(N(C)C)c(OCCC(=O)O)cc2S(=O)(=O)C1 (single isomer, unassigned) [Example 17, 3-((3-butyl-7-(dimethylamino)-3-ethyl-1,1-dioxido-5-phenyl-2,3,4,5-tetrahydro-1,5-benzothiazepin-8-yl)oxy)propanoic acid] | 16.5 | 2 |  |
| CCCCC1(CCCC)CN(c2ccc(F)c(F)c2)c2cc(SC)c(OCCC(=O)O)cc2S(=O)(=O)C1 [Example 25, 3-((3,3-dibutyl-5-(3,4-difluorophenyl)-7-(methylthio)-1,1-dioxido-2,3,4,5-tetrahydro-1,5-benzothiazepin-8-yl)oxy)propanoic acid] |  | 18 | 922 |
| CCCCC1(CCCC)CN(c2ccc(F)cc2)c2cc(SC)c(OCCC(=O)O)cc2S(=O)(=O)C1 [Example 26, 3-((3,3-dibutyl-5-(4-fluorophenyl)-7-(methylthio)-1,1-dioxido-2,3,4,5-tetrahydro-1,5-benzothiazepin-8-yl)oxy)propanoic acid] |  | 10 | 1540 |
| CCCCC1(C)CN(c2ccccc2)c2cc(SC)c(OCC(O)C(=O)O)cc2S(=O)(=O)C1 (stereo not shown) [Example 31, 3-((3-butyl-3-methyl-7-(methylthio)-1,1-dioxido-5-phenyl-2,3,4,5-tetrahydro-1,5-benzothiazepin-8-yl)oxy)-2-hydroxypropanoic acid] |  | 10 | 359 |
| CCCCC1(CC)CN(c2ccccc2)c2cc(SC)c(OCC(O)C(=O)O)cc2S(=O)(=O)C1 (stereo not shown) [Example 39, 3-((3-butyl-3-ethyl-7-(methylthio)-1,1-dioxido-5-phenyl-2,3,4,5-tetrahydro-1,5-benzothiazepin-8-yl)oxy)-2-hydroxypropanoic acid] |  | 4 | 613 |
| CCCCC1(CC)CN(c2ccc(F)cc2)c2cc(SC)c(OCC(O)C(=O)O)cc2S(=O)(=O)C1 (stereo not shown) [Example 41, 3-((3-Butyl-3-ethyl-5-(4-fluorophenyl)-7-(methylthio)-1,1-dioxido-2,3,4,5-tetrahydro-1,5-benzothiazepin-8-yl)oxy)-2-hydroxypropanoic acid] |  | 3 | 495 |
| CCCCC1(CCCC)CN(c2ccccc2)c2cc(OC)c(OCCC(=O)O)cc2S(=O)(=O)C1 [Example 45, 3-((3,3-Dibutyl-7-methoxy-1,1-dioxido-5-phenyl-2,3,4,5-tetrahydro-1,5-benzothiazepin-8-yl)oxy)propanoic acid] |  | 11 | > 6670 |
